Assay results from patent publication US8536351B2, “2-aryl-5-heterocyclyl-cyclohexane-1,3,dione compounds and their use as herbicides” (Syngenta Crop Protection LLC, priority 2007, dated 2013).

Tests used:
Type in all cases: in vivo
[1] = test system: Digitaria sanguinalis (DIGSA); experiment: Pre-emergence activity, glasshouse pot test (100=total damage to plant; 0=no damage to plant); conditions: rate 500 g/ha, evaluated 19, 20 or 21 days after spraying
Procedure: (§1) Monocotyledonous and dicotyledonous test plants were sown in standard soil in pots. After cultivation for one day (pre-emergence) or after 10 days cultivation (post-emergence) under controlled conditions in a glasshouse, the plants were sprayed with an aqueous spray solution derived from the formulation of the technical active ingredient in 0.6 ml acetone and 45 ml formulation solution containing 10.6% Emulsogen EL (Registry number 61791-12-6), 42.2% N-methyl pyrrolidone, 42.2% dipropylene glycol monomethyl ether (Registry number 34590-94-8) and 0.2% X-77 (Registry number 11097-66-8). The test plants were then grown in a greenhouse under optimum conditions until, 14 or 15 days later for post-emergence and 19, 20 or 21 days for pre-emergence, the test was evaluated (100=total damage to plant; 0=no damage to plant). Alopecurus myosuroides (ALOMY), Avena fatua (AVEFA), Lolium perenne (LOLPE), Setaria faberi (SETFA), Digitaria sanguinalis (DIGSA), Echinochloa crus-galli (ECHCG) Pre-Emergence Activity

Setaria faberi (SETFA) [2] = experiment: as above; conditions: rate 500 g/ha, evaluated 19, 20 or 21 days after spraying
Procedure: as §1

[3] = test system: Echinochloa crus-galli (ECHCG); experiment: as above; conditions: rate 500 g/ha, evaluated 19, 20 or 21 days after spraying
Procedure: as §1

Lolium perenne (LOLPE) [4] = experiment: as above; conditions: rate 500 g/ha, evaluated 19, 20 or 21 days after spraying
Procedure: as §1

[5] = test system: Alopecurus myosuroides (ALOMY); experiment: as above; conditions: rate 500 g/ha, evaluated 19, 20 or 21 days after spraying
Procedure: as §1

Avena fatua (AVEFA) [6] = experiment: as above; conditions: rate 500 g/ha, evaluated 19, 20 or 21 days after spraying
Procedure: as §1

[7] = test system: Digitaria sanguinalis (DIGSA); experiment: Post-emergence activity, glasshouse pot test (100=total damage to plant; 0=no damage to plant); conditions: evaluated 14 or 15 days after spraying; for pest or weed control at 500 g/ha: rate 500 g/ha; for pest or weed control at 125 g/ha: rate 125 g/ha
Procedure: as §1, with “Post-Emergence” for “Pre-Emergence”

Setaria faberi (SETFA) [8] = experiment: as above; conditions: evaluated 14 or 15 days after spraying; for pest or weed control at 500 g/ha: rate 500 g/ha; for pest or weed control at 125 g/ha: rate 125 g/ha
Procedure: as §1, with “Post-Emergence” for “Pre-Emergence”

[9] = test system: Echinochloa crus-galli (ECHCG); experiment: as above; conditions: evaluated 14 or 15 days after spraying; for pest or weed control at 500 g/ha: rate 500 g/ha; for pest or weed control at 125 g/ha: rate 125 g/ha
Procedure: as §1, with “Post-Emergence” for “Pre-Emergence”

Lolium perenne (LOLPE) [10] = experiment: as above; conditions: 336 h, evaluated 14 or 15 days after spraying; for pest or weed control at 500 g/ha: rate 500 g/ha; for pest or weed control at 125 g/ha: rate 125 g/ha
Procedure: as §1, with “Post-Emergence” for “Pre-Emergence”

[11] = test system: Alopecurus myosuroides (ALOMY); experiment: as above; conditions: 336 h, evaluated 14 or 15 days after spraying; for pest or weed control at 500 g/ha: rate 500 g/ha; for pest or weed control at 125 g/ha: rate 125 g/ha
Procedure: as §1, with “Post-Emergence” for “Pre-Emergence”

Avena fatua (AVEFA) [12] = experiment: as above; conditions: 336 h, evaluated 14 or 15 days after spraying; for pest or weed control at 500 g/ha: rate 500 g/ha; for pest or weed control at 125 g/ha: rate 125 g/ha
Procedure: as §1, with “Post-Emergence” for “Pre-Emergence”

SMILES	pest or weed control at 500 g/ha [1] [%]	pest or weed control at 500 g/ha (Setaria faberi (SETFA) [2]) [%]	pest or weed control at 500 g/ha [3] [%]	pest or weed control at 500 g/ha (Lolium perenne (LOLPE) [4]) [%]	pest or weed control at 500 g/ha [5] [%]	pest or weed control at 500 g/ha (Avena fatua (AVEFA) [6]) [%]	pest or weed control at 500 g/ha [7] [%]	pest or weed control at 500 g/ha (Setaria faberi (SETFA) [8]) [%]	pest or weed control at 500 g/ha [9] [%]	pest or weed control at 500 g/ha (Lolium perenne (LOLPE) [10]) [%]	pest or weed control at 500 g/ha [11] [%]	pest or weed control at 500 g/ha (Avena fatua (AVEFA) [12]) [%]	pest or weed control at 125 g/ha [7] [%]	pest or weed control at 125 g/ha (Setaria faberi (SETFA) [8]) [%]	pest or weed control at 125 g/ha [9] [%]	pest or weed control at 125 g/ha (Lolium perenne (LOLPE) [10]) [%]	pest or weed control at 125 g/ha [11] [%]	pest or weed control at 125 g/ha (Avena fatua (AVEFA) [12]) [%]
CCc1cc(C)cc(C)c1C1=C(O)CC(C2CCCSC2)CC1=O (stereo not drawn) [Compound T16]	100	100	100	100	0	100	100	100	90	90	100	80	–	–	–	–	–	–
CCc1cc(C)cc(CC)c1C1=C(OC(C)=O)CC(C2CCCS(=O)(=O)C2)CC1=O (stereo not drawn) [Compound P2]	100	100	100	80	90	100	–	–	–	–	–	–	90	20	20	0	10	20
Cc1cc(C)c(C2=C(O)CC(C3CCOCC3)CC2=O)c(C)c1 (stereo not drawn) [Compound T3]	100	60	100	100	90	90	80	90	100	100	100	90	–	–	–	–	–	–
Cc1ccc(-c2ccc(Cl)cc2)cc1C1=C(O)CC(C2CCOC2)CC1=O (stereo not drawn) [Compound T7]	100	100	100	100	70	30	100	100	100	80	90	90	–	–	–	–	–	–
CC(=O)OC1=C(c2c(C)cc(C)cc2C)C(=O)CC(C2CCOC2)C1 (stereo not drawn) [Compound P1, 3-oxo-5-(tetrahydrofuran-3-yl)-2-(2,4,6-trimethylphenyl)cyclohex-1-enyl acetate]	60	0	30	70	60	20	80	70	70	80	80	20	–	–	–	–	–	–
CCc1cc(C)cc(CC)c1C1=C(O)CC(C2CCOCC2)CC1=O (stereo not drawn) [Compound T2, 2-(2,6-diethyl-4-methylphenyl)-5-(tetrahydropyran-4-yl)cyclohexane-1,3-dione]	100	100	90	100	100	100	100	90	100	90	90	100	–	–	–	–	–	–
CCc1cc(C)cc(CC)c1C1=C(O)CC(C2CCSCC2)CC1=O (stereo not drawn) [Compound T18]	100	100	100	100	100	100	100	100	70	70	90	100	–	–	–	–	–	–
CCc1cc(C)cc(CC)c1C1=C(O)CC(C2CCOC2)CC1=O (stereo not drawn) [Compound T4, 2-(2,6-diethyl-4-methylphenyl)-5-(tetrahydrofuran-3-yl)cyclohexane-1,3-dione]	90	100	100	100	100	70	100	100	80	100	100	100	–	–	–	–	–	–
Cc1cc(C)c(C2=C(O)CC(C3CCCSC3)CC2=O)c(C)c1 (stereo not drawn) [Compound T14]	90	90	70	70	60	20	90	90	80	60	70	30	–	–	–	–	–	–
CCc1cc(C)cc(CC)c1C1=C(OC(=O)C(C)(C)C)CC(C2CCS(=O)(=O)CC2)CC1=O (stereo not drawn) [Compound P3]	100	90	100	90	90	80	–	–	–	–	–	–	70	60	60	0	70	30
